Test results taken from US20160081980A1, “Composition Comprising AMD3100 For Preventing or Treating Bone Diseases” (KYUNGPOOK NATIONAL UNIVERSITY INDUSTRY-ACADEMIC COOPERATION …, priority 2013, published 2016).

Key:
SDF-1 = details: AMD3100 5 mg/kg/day intraperitoneal for 21 days vs PBS
[1] = tested on: Osteocalcin, PTHR1, Osterix, Runx2; details: bone marrow of OVX and control mice, real-time PCR; FIG. 4
OVX mice [2] = details: AMD3100-treated OVX mice compared to PBS-treated OVX mice, 21 days; FIG. 5
Experimental: 12-week-old female C57BL/6 mice were purchased from Jackson Laboratory (Bar Harbor, ME). Mice were housed in an air-conditioned room with a 12 hour light/dark cycle at a temperature of 22±2° C. and humidity of 45-65%, and given free access to food and tap water. Mice underwent either sham surgery or ovariectomy (OVX) at 12 weeks of age and were sacrificed at 16 weeks of age. One week after surgery, sham-operated and OVX mice received an intraperitoneal injection with AMD3100 (Sigma-Aldrich #A5602, St. Louis, Mo., sigma Aldrich.com) (5 mg/kg/day) or PBS for 21 days. At the end of treatment, the mice were sacrificed, and blood samples were collected by cardiac puncture for the colony-forming unit (CFU) assay.
Single-cell suspensions of peripheral blood (PB) after ammonium chloride lysis were plated into 35 mm dishes (3×10^5 cells/plate) with MethoCult GF M3434 (StemCell Technologies). Hematopoietic colonies were counted and scored after incubation for 12-14 days at 37° C., 5% CO2, as instructed by the manufacturer.
In order to determine whether AMD3100 may mobilize HSPCs from bone marrow in OVX mice, AMD3100 or PBS was administered to OVX mice for 21 days.

OVX mice [3] = details: AMD3100-treated vs PBS-treated OVX mice; did not reach statistical significance; FIGS. 6 & 7
Experimental: 12-week-old female C57BL/6 mice were purchased from Jackson Laboratory (Bar Harbor, ME). Mice were housed in an air-conditioned room with a 12 hour light/dark cycle at a temperature of 22±2° C. and humidity of 45-65%, and given free access to food and tap water. Mice underwent either sham surgery or ovariectomy (OVX) at 12 weeks of age and were sacrificed at 16 weeks of age. One week after surgery, sham-operated and OVX mice received an intraperitoneal injection with AMD3100 (Sigma-Aldrich #A5602, St. Louis, Mo., sigma Aldrich.com) (5 mg/kg/day) or PBS for 21 days. At the end of treatment, the mice were sacrificed, and blood samples were collected by cardiac puncture for the colony-forming unit (CFU) assay. Femora were removed, fixed with 4% paraformaldehyde in phosphate-buffered physiological saline solution (pH 7.4) for 16 hours, and then stored at 4° C. in 80% ethanol for measurement of bone density.
Bone marrow cells from the femurs and tibias were collected by flushing with 20 ml PBS passed through a 25-gauge needle. After centrifugation at 1,300 rpm for 5 minutes, the supernatant was removed and the cells were then washed by ammonium chloride lysis. […]

OVX mice [4] = details: AMD3100-treated vs PBS-treated OVX mice
BM-derived macrophages = details: RANKL 100 ng/ml, M-CSF 30 ng/ml, AMD3100 25 mg/ml for 3 days; FIG. 10
Experimental: Total RNA was extracted from BM cultures treated with or without RANKL in the presence or absence of AMD3100 (25 g/ml) for 3 days. […] RNA samples were extracted from whole bone marrow (BM) cells of four individual animals per group and isolated from the cultured cells using the RNeasy Mini kit (Qiagen, Hilden, Germany), and the concentration was determined using a Nanodrop ND-1000 spectrophotometer. A total of 5 mg of each RNA was converted to cDNA using the sprint RT complete-oligo (dT) 18 (Clontech, MountainView, Calif., www.clontech.com) according to the manufacturer's guide. The cDNA was quantified using the QuantiTect SYBR Green PCR Kit (Qiagen). The following reaction components were added to each investigated transcript to the indicated end-concentration: forward primer (5 pM), reverse primer (5 pM), and QuantiTect SYBR Green PCR Master mix. The 10 μl master-mix was added to a 0.1 ml tube, and 5 μl volume, containing 100 ng reverse transcribed total RNA, was added as polymerase chain reaction (PCR) template. The tubes were closed, centrifuged, and placed into the Corbett research RG-6000 real-time PCR machine (Corbett LifeScience, Sydney, Australia). The following primers were used: Bone marrow cells were obtained from the femurs and tibias of seven-week-old mice. The bone marrow suspension was added to plates along with macrophage colony stimulating factor (M-CSF; 30 ng/ml). […]

OVX mice [5] = tested on: OVX mice

c1cc(CN2CCCNCCNCCCNCC2)ccc1CN1CCCNCCNCCCNCC1 [AMD3100, 1,1′-[1,4-Phenylenebis(methylene)]bis[1,4,8,1]-tetraazacyclotetradecanel]
levels of functional SDF-1 in bone marrow (SDF-1; bone marrow supernatant, FIG. 2): decreased
levels of functional SDF-1 in plasma (SDF-1; plasma, FIG. 3): increased
levels of osteoblast lineage-specific genes (Osteocalcin, PTHR1, Osterix, Runx2) [1]: no significant differences
number of CFU cells in blood (OVX mice [2]): significant increase
percentage of Lin-Sca-1+c-Kit+ (LSK) cells in bone marrow (OVX mice [3]): decrease
bone density in micro-CT images of the distal femur (OVX mice [4]; FIG. 8): increased bone density
bone mineral density (BMD) (OVX mice [4]; FIG. 9): increase
osteoclast differentiation (expression of genes associated with osteoclast differentiation) (BM-derived macrophages): did not affect osteoclast differentiation
osteoblast number/bone surface [N.Ob/BS (/mm)] (OVX mice [5]; H&E staining, AMD3100 treatment groups, FIG. 13): did not change significantly
number and size of TRAP+ active osteoclasts in the trabecular region (OVX mice [5]; TRAP staining, AMD3100-treated OVX mice, FIG. 11): decrease
osteoclast number/bone surface [N.Oc/BS (/mm)] (OVX mice [5]; histomorphometry, AMD3100-treated vs PBS-treated OVX mice, FIG. 12): decrease
